The target of test [1] is T1, Endothelin-converting enzyme 1 (Homo sapiens, UniProt P42892).
T1 sequence (P42892 whole entry): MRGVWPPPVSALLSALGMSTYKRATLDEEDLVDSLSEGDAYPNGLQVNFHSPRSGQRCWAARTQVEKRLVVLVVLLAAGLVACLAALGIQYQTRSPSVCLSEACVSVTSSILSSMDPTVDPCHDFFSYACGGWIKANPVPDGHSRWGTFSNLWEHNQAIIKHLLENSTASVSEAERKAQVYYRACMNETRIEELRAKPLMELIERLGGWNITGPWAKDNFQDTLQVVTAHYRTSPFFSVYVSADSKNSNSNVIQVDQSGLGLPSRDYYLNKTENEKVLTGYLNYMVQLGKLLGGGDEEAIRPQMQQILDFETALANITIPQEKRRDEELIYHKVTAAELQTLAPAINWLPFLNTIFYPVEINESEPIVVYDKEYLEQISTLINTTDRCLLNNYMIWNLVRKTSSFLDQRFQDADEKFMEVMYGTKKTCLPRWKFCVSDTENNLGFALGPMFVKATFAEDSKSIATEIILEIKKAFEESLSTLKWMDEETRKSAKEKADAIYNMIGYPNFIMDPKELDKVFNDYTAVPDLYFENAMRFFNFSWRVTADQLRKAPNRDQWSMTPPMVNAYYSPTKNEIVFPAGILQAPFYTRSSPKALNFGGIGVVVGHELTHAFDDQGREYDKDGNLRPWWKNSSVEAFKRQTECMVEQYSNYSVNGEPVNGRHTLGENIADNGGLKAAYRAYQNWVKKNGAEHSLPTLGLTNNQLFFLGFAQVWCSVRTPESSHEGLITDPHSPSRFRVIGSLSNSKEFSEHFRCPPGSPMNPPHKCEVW
Put plainly: In vitro inhibition against recombinant human Endothelin converting enzyme 1 activity.

Test [2] concerns the target T2, Endothelin-converting enzyme 1 (Homo sapiens) (UniProt P42892).
T2 sequence (whole entry): T1 sequence (P42892 whole entry)
Put plainly: In vitro inhibition to recombinant human endothelin converting enzyme. More on the design: concentration or dose not given beside the values. The settings on record: concentration not given here.

Test [3] addresses Neprilysin (Homo sapiens, UniProt P08473).
Description: Inhibition of neutral endopeptidase 24.11(NEP)

As a reminder, the IC50 is the concentration that inhibits the measured activity by half. The inhibition is the relative decrease from the control value, in per cent.

Neprilysin, sequence (P08473 whole entry): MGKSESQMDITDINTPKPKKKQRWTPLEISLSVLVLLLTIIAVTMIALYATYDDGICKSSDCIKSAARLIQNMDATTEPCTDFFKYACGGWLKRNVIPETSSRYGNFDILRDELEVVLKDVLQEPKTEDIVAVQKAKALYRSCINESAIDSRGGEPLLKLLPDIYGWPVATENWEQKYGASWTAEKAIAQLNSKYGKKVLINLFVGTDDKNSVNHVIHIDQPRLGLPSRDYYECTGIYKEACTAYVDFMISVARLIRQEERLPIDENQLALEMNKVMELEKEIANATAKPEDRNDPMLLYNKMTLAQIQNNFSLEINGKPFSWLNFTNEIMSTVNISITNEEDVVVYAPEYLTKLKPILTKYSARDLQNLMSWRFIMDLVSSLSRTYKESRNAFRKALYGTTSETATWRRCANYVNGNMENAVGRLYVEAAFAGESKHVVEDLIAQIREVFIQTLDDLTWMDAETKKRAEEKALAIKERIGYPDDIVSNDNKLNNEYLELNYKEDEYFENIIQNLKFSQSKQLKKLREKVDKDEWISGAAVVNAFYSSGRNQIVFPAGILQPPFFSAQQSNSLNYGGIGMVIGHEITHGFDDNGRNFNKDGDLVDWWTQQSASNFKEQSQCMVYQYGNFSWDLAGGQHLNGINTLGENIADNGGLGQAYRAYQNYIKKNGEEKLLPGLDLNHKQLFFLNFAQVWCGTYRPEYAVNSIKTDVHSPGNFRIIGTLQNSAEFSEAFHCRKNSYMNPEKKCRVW

Regarding `O=P(O)(O)C(Cc1cccc2ccccc12)N[C@H](Cc1ccc(-c2ccccc2)cc1)c1nnn[nH]1` (some centres not stated), the IC50 in test [1] was 160 nM. For the same compound, in test [2], the inhibition stood at 85%.
For `O=C(O)CNC(=O)C(CS)Cc1ccccc1` (configuration not stated) [THIORPHAN] the same measures were greater than 100000 nM and 9%.
`O=P(O)(O)CN[C@@H](Cc1ccccc1)c1nnn[nH]1`: in test [2], the inhibition worked out at 0%.
Take `O=P(O)(O)CN[C@@H](Cc1ccc2ccccc2c1)c1nnn[nH]1`: the inhibition in test [2] amounted to 0%.
In the case of `O=P(O)(O)C(Cc1ccc2ccccc2c1)N[C@H](Cc1ccc(-c2ccccc2)cc1)c1nnn[nH]1` (some centres not stated), in test [1], the IC50 was determined as 1400 nM. Moreover, in test [2], the inhibition amounted to 47%.
On to `O=P(O)(O)CC(Cc1ccc(-c2ccccc2)cc1)c1nnn[nH]1` (configuration not stated), for which the inhibition in test [2] was found to be 8%.
Take `O=P(O)(O)C(Cc1cccc2c1OCO2)N[C@H](Cc1ccc(-c2ccccc2)cc1)c1nnn[nH]1` (some centres not stated): the half-maximal inhibitory concentration (IC50) in test [1] came out at 1100 nM. Besides, the inhibition in test [2] came out at 50%.
For `O=P(O)(O)C(Cc1ccccc1)N[C@@H](Cc1ccc(-c2ccccc2)cc1)c1nnn[nH]1` (some centres not stated) the same measures were 280 nM and 83%.
`O=C(O)C[C@H](Cc1ccc(-c2ccccc2)cc1)NCP(=O)(O)O`: the inhibition in test [2] was found to be 0%.
Consider `O=P(O)(O)C(Cc1ccc2ccccc2c1)N[C@@H](Cc1ccc(-c2ccccc2)cc1)c1nnn[nH]1` (some centres not stated) [CGS-314447], for which the IC50 in test [1] is 45 nM. In test [2], the inhibition was 91%.
For `O=P(O)(O)C(Cc1ccc2c(c1)OCO2)N[C@@H](Cc1ccc(-c2ccccc2)cc1)c1nnn[nH]1` (some centres not stated) the same measures were 93 nM and 85%.
With `CC(C)C[C@H](NP(=O)(O)O[C@@H]1O[C@@H](C)[C@H](O)[C@@H](O)[C@H]1O)C(=O)N[C@@H](Cc1c[nH]c2ccccc12)C(=O)O` [PHOSPHORAMIDON], the inhibition in test [2] amounted to 47%. Also, the IC50 in test [3] is 30 nM.
In the case of `O=P(O)(O)CN[C@@H](Cc1ccc(-c2ccccc2)cc1)c1nn[nH]n1`, the inhibition in test [2] came out at 79%.
The same measure, in the same setting: with `O=P(O)(O)CN[C@@H](CCc1ccccc1)c1nnn[nH]1` the figure was 0%.
For `O=P(O)(O)C(Cc1cccc2cccnc12)N[C@H](Cc1ccc(-c2ccccc2)cc1)c1nnn[nH]1` (some centres not stated), in test [1], the IC50 is greater than 1000 nM. Also, the inhibition in test [2] was 22%.
Regarding `O=P(O)(O)C(Cc1cccc2ccccc12)N[C@@H](Cc1ccc(-c2ccccc2)cc1)c1nnn[nH]1` (some centres not stated), the IC50 in test [1] was determined as 17 nM. Besides, in test [2], the inhibition amounted to 95%.
Take `SCC(Cc1ccc(-c2ccccc2)cc1)c1nnn[nH]1` (configuration not stated): the inhibition in test [2] came out at 26%.
On the same count and under the same terms, to `O=P(O)(O)CCC(Cc1ccc(-c2ccccc2)cc1)c1nnn[nH]1` (configuration not stated) belongs 0%.
Turning to `O=P(O)(O)C(Cc1cccc2cccnc12)N[C@@H](Cc1ccc(-c2ccccc2)cc1)c1nnn[nH]1` (some centres not stated), the IC50 in test [1] came out at 23 nM. Also, the inhibition in test [2] was 93%.
For `O=P(O)(O)C(Cc1ccccc1)N[C@H](Cc1ccc(-c2ccccc2)cc1)c1nnn[nH]1` (some centres not stated) the same measures were 5000 nM and 18%.
For `O=P(O)(O)C(N[C@H](Cc1ccc(-c2ccccc2)cc1)c1nnn[nH]1)c1cccc2ccccc12` (some centres not stated), in that order: greater than 1000 nM and 49%.
For `O=C(O)c1n[nH]c([C@H](Cc2ccc(-c3ccccc3)cc2)NCP(=O)(O)O)n1`, the inhibition in test [2] came to 14%.
Same read-out and setting: to `O=P(O)(O)CN[C@@H](Cc1ccc(-c2ccccc2)cc1)c1nc[nH]n1` belongs 0%; to `O=P(O)(O)CN[C@H](Cc1ccc(-c2ccccc2)cc1)c1nnn[nH]1`, 0%.
As to `O=P(O)(O)C(Cc1cccc2c1OCO2)N[C@@H](Cc1ccc(-c2ccccc2)cc1)c1nnn[nH]1` (some centres not stated), the IC50 in test [1] stood at 110 nM. The inhibition in test [2] amounted to 87%.
As for `O=P(O)(O)CN[C@@H](Cc1ccc(-c2ccccc2)cc1)c1nnn[nH]1`, the IC50 in test [1] was found to be 410 nM.
With `O=C(O)[C@H](Cc1ccc(-c2ccccc2)cc1)NCP(=O)(O)O`, the inhibition in test [2] came out at 20%.
For the compound `O=P(O)(O)C(N[C@@H](Cc1ccc(-c2ccccc2)cc1)c1nnn[nH]1)c1cccc2ccccc12` (some centres not stated), the IC50 in test [1] was greater than 1000 nM. For the same compound, the inhibition in test [2] was determined as 14%.
On to `O=P(O)(O)C(Cc1ccc2c(c1)OCO2)N[C@H](Cc1ccc(-c2ccccc2)cc1)c1nnn[nH]1` (some centres not stated), for which the IC50 in test [1] was found to be 390 nM. In addition, in test [2], the inhibition is 76%.
For the compound `O=P(O)(O)CN[C@@H](Cc1c[nH]c2ccccc12)c1nnn[nH]1`, the inhibition in test [2] was determined as 10%.
The same measure, in the same setting: with `O=P(O)(CCc1ccc2ccccc2c1)N[C@@H](Cc1ccc(-c2ccccc2)cc1)c1nnn[nH]1` the figure was 0%.

The record behind these values is ChEMBL document CHEMBL1129909, “Potent non-peptidic dual inhibitors of endothelin-converting enzyme and neutral endopeptidase 24.11” (Bioorg Med Chem Lett, 1997).
